Assay results: US20240373847A1, “HERBICIDAL MALONAMIDES” (BASF SE, priority 2021, published 2024)

Assays:
Format in all cases: in vivo
Setaria viridis (SETVI) [1] = experiment: greenhouse test, pre-emergence treatment; conditions: 0.250 kg/ha, pre-emergence method; scale from 0 to 100
From the text: (§1) The culture containers used were plastic flowerpots containing loamy sand with approximately 3.0% of humus as the substrate. The seeds of the test plants were sown separately for each species.
(§2) For the pre-emergence treatment, the active ingredients, which had been suspended or emulsified in water, were applied directly after sowing by means of finely distributing nozzles. The containers were irrigated gently to promote germination and growth and subsequently covered with transparent plastic hoods until the test plants had rooted.
(§3) This cover caused uniform germination of the test plants, unless this had been impaired by the active ingredients.
(§4) Depending on the species, the test plants were kept at 10-25° C. or 20-35° C., respectively.
(§5) The test period extended over 2 to 4 weeks. During this time, the test plants were tended, and their response to the individual treatments was evaluated.
(§6) Evaluation was carried out using a scale from 0 to 100. 100 means no emergence of the test plants, or complete destruction of at least the aerial moieties, and 0 means no damage, or normal course of growth. A good herbicidal activity is given at values of 70 to <90 and a very good herbicidal activity is given at values of 90 to 100.
(§7) The test plants used in the greenhouse experiments were of the following species: […]

[2] = test system: Amaranthus retroflexus (AMARE); experiment: greenhouse test, pre-emergence treatment; conditions: pre-emergence method, scale from 0 to 100
From the text: as §1, §2, §3, §4, §5, §6, §7

[3] = test system: Echinocloa crus-galli (ECHCG); experiment: greenhouse test, post-emergence treatment; conditions: 0.500 kg/ha, post-emergence method; scale from 0 to 100
From the text: as §1
(§8) For the post-emergence treatment, the test plants were first grown to a height of 3 to 15 cm, depending on the plant habit, and only then treated with the active ingredients which had been suspended or emulsified in water. For this purpose, the test plants were either sown directly and grown in the same containers, or they were first grown separately as seedlings and transplanted into the test containers a few days prior to treatment.
as §4, §5, §6, §7

[4] = test system: Echinocloa crus-galli (ECHCG); experiment: greenhouse test, pre-emergence treatment; conditions: 0.125 kg/ha, pre-emergence method; scale from 0 to 100
From the text: as §1, §2, §3, §4, §5, §6, §7

[5] = test system: Abutilon theophrasti (ABUTH); experiment: greenhouse test, pre-emergence treatment; conditions: 0.125 kg/ha, pre-emergence method; scale from 0 to 100
From the text: as §1, §2, §3, §4, §5, §6, §7

Setaria faberi (SETFA) = experiment: greenhouse test, pre-emergence treatment; conditions: 0.125 kg/ha, pre-emergence method; scale from 0 to 100
From the text: as §1, §2, §3, §4, §5, §6, §7

[6] = test system: Apera spica-venti (APESV); experiment: greenhouse test, pre-emergence treatment; conditions: 0.125 kg/ha, pre-emergence method; scale from 0 to 100
From the text: as §1, §2, §3, §4, §5, §6, §7

Setaria viridis (SETVI) [7] = experiment: greenhouse test, post-emergence treatment; conditions: 1.000 kg/ha, post-emergence method; scale from 0 to 100
From the text: as §1, §8, §4, §5, §6, §7

[8] = test system: Digitaria sanguinalis (DIGSA); experiment: greenhouse test, pre-emergence treatment; conditions: 1.000 kg/ha, pre-emergence method; scale from 0 to 100
From the text: as §1, §2, §3, §4, §5, §6, §7

[9] = test system: Lolium multiflorum (LOLMU); experiment: greenhouse test, pre-emergence treatment; conditions: 1.000 kg/ha, pre-emergence method; scale from 0 to 100
From the text: as §1, §2, §3, §4, §5, §6, §7

[10] = test system: Amaranthus retroflexus (AMARE); experiment: greenhouse test, post-emergence treatment; conditions: 1.000 kg/ha, post-emergence method; scale from 0 to 100
From the text: as §1, §8, §4, §5, §6, §7

COC(=O)C1C=CC(NC(=O)C(C)C(=O)Nc2cc(F)cc(F)c2)C1 (mixture of isomers) [I.153]
herbicidal activity against SETVI (Setaria viridis (SETVI) [1]): very good herbicidal activity (a very good herbicidal activity is given at values of 90 to 100)

COC(=O)CC(C)NC(=O)C(C)C(=O)Nc1cc(Cl)cc(Cl)c1 (stereo not shown) [I.1]
herbicidal activity against AMARE ([2]; 0.500 kg/ha): good herbicidal activity (A good herbicidal activity is given at values of 70 to <90)

COC(=O)CC(C)NC(=O)C(C(=O)Nc1cc(Cl)cc(Cl)c1)C1CC1 (stereo not shown) [I.3]
herbicidal activity against ECHCG [3]: good herbicidal activity (A good herbicidal activity is given at values of 70 to <90)

CCS(=O)(=O)NC(=O)CC(C)NC(=O)C(C)C(=O)Nc1cc(C)cc(F)c1 (stereo not shown) [I.14]
herbicidal activity against AMARE ([2]; 0.125 kg/ha): very good herbicidal activity (a very good herbicidal activity is given at values of 90 to 100)
herbicidal activity against ECHCG [4]: good herbicidal activity (A good herbicidal activity is given at values of 70 to <90)

CONC(=O)CC(C)NC(=O)C(C)C(=O)Nc1cc(F)cc(F)c1 (stereo not shown) [I.79]
herbicidal activity against ABUTH [5]: good herbicidal activity (A good herbicidal activity is given at values of 70 to <90)

CCC(C(=O)Nc1cc(Cl)cc(Cl)c1)C(=O)N[C@H]1C=C[C@@H](C(=O)OC)C1 (stereo partly drawn) [I.90, methyl (1S,4R)-4-[2-[(3,5-dichlorophenyl)carbamoyl]butanoylamino]cyclopent-2-ene-1-carboxylate]
herbicidal activity against SETFA (Setaria faberi (SETFA)): good herbicidal activity (A good herbicidal activity is given at values of 70 to <90)

CCc1cccc(NC(=O)C(CC)C(=O)NC(C)CCC(=O)OC)c1 (stereo not shown) [I.117]
herbicidal activity against APESV [6]: very good herbicidal activity (a very good herbicidal activity is given at values of 90 to 100)

CCC(C(=O)Nc1cccc(OC(F)(F)F)c1)C(=O)NC(C)CCC(=O)O (stereo not shown) [I.128]
herbicidal activity against AMARE ([2]; 1.000 kg/ha): very good herbicidal activity (a very good herbicidal activity is given at values of 90 to 100)

CCC(C(=O)Nc1cc(C)cc(F)c1)C(=O)NC(C)CCC(=O)O (stereo not shown) [I.136]
herbicidal activity against SETVI (Setaria viridis (SETVI) [7]): good herbicidal activity (A good herbicidal activity is given at values of 70 to <90)

CCC(C(=O)Nc1cccc(F)c1)C(=O)N[C@H]1C=C[C@@H](C(=O)O)C1 (stereo partly shown) [I.138]
herbicidal activity against DIGSA [8]: good herbicidal activity (A good herbicidal activity is given at values of 70 to <90)
herbicidal activity against LOLMU [9]: good herbicidal activity (A good herbicidal activity is given at values of 70 to <90)

CCC(C(=O)Nc1cc(F)cc(F)c1)C(=O)NC(C)CC(=O)O (stereo not shown) [I.144]
herbicidal activity against AMARE [10]: good herbicidal activity (A good herbicidal activity is given at values of 70 to <90)
